Where two headings read alike, the source gives them in different places.
Legend:
[1] = female, guinea pig, in vivo
Method: (§1) Female guinea pigs (Charles River) weighing 200-300 g, of approximately 6-8 weeks of age are used (N=4 per group). Prior to any procedure, animals are anesthetized using a combination of xylazine (10 mg/kg), ketamine (40 mg/kg) and acepromazine (0.75 mg/kg) for up to an hour via the intramuscular route. If needed, an intraoperative booster is administered intraperitoneally representing one-tenth of the original dose. Intratympanic injection—Each animal is positioned so that the head is tilted at an angle to favor injection towards the round window niche. Briefly, under visualization with an operating microscope, 50 μl of formulations comprising 0.2-6% dexamethasone and varying concentrations of P407 are administered to the animals. […] During the procedure and until recovery, animals are placed on a temperature controlled (40° C.) heating pad until consciousness is regained at which time they are returned to the vivarium.
(§2) The skin behind the ear of anesthetized guinea pigs is shaved and disinfected with povidone-iodine. An incision is then made behind the ear, and muscles are carefully retracted from over the bulla. A hole is drilled though the bulla using a dental burr so that the middle ear is exposed and accessible. The cochlea and the round window membrane are visualized under a stereo surgical microscope. A unique microhole is hand drilled through the bony shell of the cochlea (active capsule) adjacent to the round window. Perilymph (5 μl) is then collected using a microcapillary inserted into the cochlear scala tympani.

[2] = In vitro dissolution / mean dissolution time (MDT) of active agent from formulation; type: physicochemical
Method: The release profile of compositions suitable for methods described herein is optionally determined using dissolution techniques. In one embodiment, dissolution is performed at 37° C. in snapwells (6.5 mm diameter polycarbonate membrane with a pore size of 0.4 μm), 0.2 mL of a gel formulation described herein (e.g., a gel formulation of Example 1) is placed into snapwell and left to harden, then 0.5 mL buffer is placed into reservoir and shaken using a Labline orbit shaker at 70 rpm. Samples are taken every hour (0.1 mL withdrawn and replace with warm buffer). Samples are analyzed for active agent concentration by UV at 245 nm against an external calibration standard curve. Pluronic concentration is analyzed at 624 nm using the cobalt thiocyanate method. Relative rank-order of mean dissolution time (MDT) as a function of % P407 is determined. […] A non-linear relationship indicates release of active agent via a combination of diffusion and/or polymer gel degradation.
The MDT is inversely proportional to the release rate of an active agent from a composition described herein. Experimentally, the released active agent is optionally fitted to the Korsmeyer-Peppas equation: […]
where Q is the amount of active agent released at time t, Qα is the overall released amount of active agent, k is a release constant of the nth order, n is a dimensionless number related to the dissolution mechanism and b is the axis intercept, characterizing the initial burst release mechanism wherein n=1 characterizes an erosion controlled mechanism. The mean dissolution time (MDT) is the sum of different periods of time the drug molecules stay in the matrix before release, divided by the total number of molecules and is optionally calculated by: […]
In alternate embodiments, samples are analyzed using the method described by Li Xin-Yu paper [Acta Pharmaceutica Sinica 2008, 43(2):[…]] and Rank-order of mean dissolution time (MDT) as a function of % P407 is determined.

[3] = Inner ear (perilymph) pharmacokinetics after intratympanic administration in guinea pigs; details: for methylprednisolone peak level in the perilymph: intratympanic administration of hydrogel
Method: as §1, §2

[4] = tested on: Cisplatin induced hearing loss; experiment: Cisplatin induced ototoxicity model, intratympanic injection, hearing by ABR; type: in vivo, guinea pig
Method: Intratympanic injection of a formulation of Example 1 is administered the day before cisplatin administration. The lower right quadrant of the abdomen is shaved 1 inch and swabbed with alcohol. A tiny (2-3 mm) incision is made on the abdomen and a 21 G blunt needle is used to penetrate the abdominal wall and into the intraperitoneal cavity. The needle will be connected to an infusion bag containing cisplatin for a slow infusion of 15-30 minutes in the range of 5-15 mg/kg. The incision site is closed using sterile staples. Animals will be placed on a warming pad during the infusion and while recovering. In addition, animals receive twice daily IP injection of saline solution for 3 days to prevent nephrotoxicity.
The hearing of the animal is tested by recording the brainstem activity in response to a known auditory stimulus. (ABR: Auditory Brainstem Response) at various time points. This measurement is performed under general anesthesia. During the procedure the animal is placed on a heating pad (40° C.) in a sound proof booth and an earphone is fitted loosely into one ear at a time. Three subcutaneous needle electrodes are used to measure the brainstem activity. […] The recording then takes place, where the audio stimulus is applied at different frequencies and hearing thresholds, and the brainstem activity recorded.

[5] = tested on: noise induced hearing loss; experiment: Acoustic trauma / noise induced hearing loss model, intratympanic injection, hearing by ABR; type: in vivo, guinea pig; details: thermoreversible gel formulation, prophylactic intratympanic administration
Method: The hearing of the animal is tested by recording the brainstem activity in response to a known auditory stimulus. (ABR: Auditory Brainstem Response) at various time points. This measurement is performed under general anesthesia. During the procedure the animal is placed on a heating pad (40° C.) in a sound proof booth and an earphone is fitted loosely into one ear at a time. Three subcutaneous needle electrodes are used to measure the brainstem activity. One is placed behind the ear with the earphone, one on the vertex of the skull and one in the hindleg. The recording then takes place, where the audio stimulus is applied at different frequencies and hearing thresholds, and the brainstem activity recorded.
Following the procedure described in Example 9, a dexamethasone formulation is administered to guinea pigs prior to exposure to acoustic trauma. Hearing is evaluated as described in Example 8 above.
Following the procedure described in Example 9, a SP600125 formulation is administered to guinea pigs prior to exposure to acoustic trauma. Hearing is evaluated as described in Example 9 above.

[6] = intratympanic administration in hydrogel vehicle

Q: What does the source list for `CC(=O)OCC(=O)[C@@]1(O)[C@H](C)C[C@H]2[C@@H]3CCC4=CC(=O)C=C[C@]4(C)[C@@]3(F)[C@@H](O)C[C@@]21C` [DA, Dexamethasone acetate]?
A: inner ear exposure, dexamethasone in perilymph (AUC) [1]: 84000 to 359000 ng·h/mL; residence time in inner ear compartment (MRT) [1]: 17 to 82 h

Q: For `C[C@@H]1C[C@H]2[C@@H]3CCC4=CC(=O)C=C[C@]4(C)[C@@]3(F)[C@@H](O)C[C@]2(C)[C@@]1(O)C(=O)COP(=O)([O-])[O-].[Na+].[Na+]` [DSP], which “MDT (mean dissolution time)” value ([2]; 17% Poloxamer 407 formulation) is on record?
A: The value was “about 3 h”.

Q: And the “MDT (mean dissolution time)” value ([2]; aqueous solution)?
A: Its value is 0.3 h.

Q: What about the “inner ear exposure, dexamethasone in perilymph (AUC)” value [3, 6] of the same molecule?
A: Its value is 28000 to 57000 ng·h/mL.

Q: And the “residence time in inner ear compartment (MRT)” value [3, 6]?
A: The value was 4 to 7 h.

Q: What about the “auditory function versus saline control, acute cisplatin ototoxicity” value ([4]; 2.0% solution, single bilateral intratympanic injection one day before cisplatin 12 mg/kg, Day 7 post cisplatin) of the same molecule?
A: The value was “No significant differences”.

Q: Which “methylprednisolone peak level in the perilymph” value [3] does the source give for `C[C@H]1C[C@@H]2[C@H]([C@@H](O)C[C@@]3(C)[C@H]2CC[C@]3(O)C(=O)CO)[C@@]2(C)C=CC(=O)C=C12` [MP, methylprednisolone] here?
A: Its value is 19.2 µg/mL.

Q: And the “decline of perilymph levels after peak (in words)” value ([3]; intratympanic hydrogel)?
A: The value was “decreased slowly over 10 days”.

Q: Which “MDT (mean dissolution time)” value ([2]; 17% Poloxamer 407 formulation) does the source give for `C[C@H]1C[C@@H]2[C@H]([C@@H](O)C[C@@]3(C)[C@H]2CC[C@]3(O)C(=O)COC(=O)CCC(=O)[O-])[C@@]2(C)C=CC(=O)C=C12.[Na+]` [MPS] here?
A: Its value is “about 3 h”.

Q: And the “methylprednisolone peak level in the perilymph” value [3]?
A: Its value is 6.5 µg/mL.

Q: What about the “perilymph level as fraction of the peak levels” value ([3]; within 3 days after intratympanic hydrogel) of the same molecule?
A: Its value is 0.8-1.0%.

Q: With `CC#C[C@]1(O)CC[C@H]2[C@@H]3CCC4=CC(=O)CCC4=C3[C@@H](c3ccc(N(C)C)cc3)C[C@@]21C` [Mifepristone] as the molecule, how does the “effect on dexamethasone gel protection against acute cisplatin ototoxicity” value ([4]; 6.0% mifepristone + 6.0% dexamethasone gel, intratympanic, one day before cisplatin 12 mg/kg) read?
A: The value was “antagonizes dexamethasone gel protection”.

Q: Which “protection against acoustic trauma / prevention of hearing loss” value [5] does the source give for `O=C1c2ccccc2-c2n[nH]c3cccc1c23` [SP600125, anthra[1,9-cd]pyrazol-6(2H)-one] here?
A: The value was “preventing hearing loss due to acoustic trauma”.

Q: With “IGF-1: insulin-like growth factor, trophic agent/growth factor (PeproTech)” as the molecule, how does the “protection against acoustic trauma / prevention of hearing loss” value [5] read?
A: Its value is “protects against acoustic trauma”.

From patent publication US20180036231A1, “PREVENTION OF AND RECOVERY FROM DRUG-INDUCED OTOTOXICITY” (Otonomy, Inc., priority 2011, published 2018)
